How the values were obtained:
Assay in all cases: SelectScreen, TR FRET
Conditions in all cases: compound 5.0 µM
PRKCQ (human) = PRKCQ (human) (UniProt Q04759)
MAP2K2 (human) = MAP2K2 (human) (UniProt P36507)
FGFR3 (human) = FGFR3 (human) (UniProt P22607)
STK24 (human) = STK24 (human) (UniProt Q9Y6E0)
PRKCI (human) = PRKCI (human) (UniProt P41743)
ALK (human) = ALK (human) (UniProt Q9UM73)
GRK6 (human) = GRK6 (human) (UniProt P43250)
MAPK13 (human) = MAPK13 (human) (UniProt O15264)
MAP4K5 (human) = MAP4K5 (human) (UniProt Q9Y4K4)
MINK1 (human) = MINK1 (human) (UniProt Q8N4C8)
IRAK4 (human) = IRAK4 (human) (UniProt Q9NWZ3)
SRC (human) = SRC (human) (UniProt P12931)
[1] = test system: ABL1 (human), P00519 [T315I]
ADRBK1 (human) = ADRBK1 (human) (UniProt P25098)
MAPKAPK2 (human) = MAPKAPK2 (human) (UniProt P49137)
DYRK3 (human) = DYRK3 (human) (UniProt O43781)
ADRBK2 (human) = ADRBK2 (human) (UniProt P35626)
TAOK2 (human) = TAOK2 (human) (UniProt Q9UL54)
[2] = test system: PDGFRA (human), P16234 [D842V]
[3] = test system: ABL1 (human), P00519 [G250E]
CSNK2A1 (human) = CSNK2A1 (human) (UniProt P68400)
EPHA2 (human) = EPHA2 (human) (UniProt P29317)
ROCK1 (human) = ROCK1 (human) (UniProt Q13464)
MAPK3 (human) = MAPK3 (human) (UniProt P27361)
RET (human) = RET (human) (UniProt P07949)
GRK7 (human) = GRK7 (human) (UniProt Q8WTQ7)
CSNK1E (human) = CSNK1E (human) (UniProt P49674)
INSR (human) = INSR (human) (UniProt P06213)
AURKB (human) = AURKB (human) (UniProt Q96GD4)
MAPK14 (human) = MAPK14 (human) (UniProt Q16539)
MYLK2 (human) = MYLK2 (human) (UniProt Q9H1R3)
SYK (human) = SYK (human) (UniProt P43405)
CLK1 (human) = CLK1 (human) (UniProt P49759)
SGK2 (human) = SGK2 (human) (UniProt Q9HBY8)
ABL1 (human) = ABL1 (human) (UniProt P00519)
FGFR4 (human) = FGFR4 (human) (UniProt P22455)
EPHA4 (human) = EPHA4 (human) (UniProt P54764)
MERTK (human) = MERTK (human) (UniProt Q12866)
SRPK2 (human) = SRPK2 (human) (UniProt P78362)
[4] = test system: ABL1 (human), P00519 [E255K]

Sequence of MAP2K2 (human) (P36507 whole entry, looked up): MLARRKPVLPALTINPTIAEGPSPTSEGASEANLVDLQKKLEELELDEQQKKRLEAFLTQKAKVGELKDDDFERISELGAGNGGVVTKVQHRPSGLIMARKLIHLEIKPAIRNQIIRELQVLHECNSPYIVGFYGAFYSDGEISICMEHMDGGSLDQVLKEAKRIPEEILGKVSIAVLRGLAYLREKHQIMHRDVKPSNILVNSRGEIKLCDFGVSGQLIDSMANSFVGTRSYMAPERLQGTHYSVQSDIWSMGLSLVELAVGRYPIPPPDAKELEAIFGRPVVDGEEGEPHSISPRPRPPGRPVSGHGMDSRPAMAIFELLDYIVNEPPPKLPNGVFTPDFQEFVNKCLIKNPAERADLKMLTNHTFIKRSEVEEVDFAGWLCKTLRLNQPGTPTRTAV
Sequence of MAP4K5 (human) (Q9Y4K4 whole entry, looked up): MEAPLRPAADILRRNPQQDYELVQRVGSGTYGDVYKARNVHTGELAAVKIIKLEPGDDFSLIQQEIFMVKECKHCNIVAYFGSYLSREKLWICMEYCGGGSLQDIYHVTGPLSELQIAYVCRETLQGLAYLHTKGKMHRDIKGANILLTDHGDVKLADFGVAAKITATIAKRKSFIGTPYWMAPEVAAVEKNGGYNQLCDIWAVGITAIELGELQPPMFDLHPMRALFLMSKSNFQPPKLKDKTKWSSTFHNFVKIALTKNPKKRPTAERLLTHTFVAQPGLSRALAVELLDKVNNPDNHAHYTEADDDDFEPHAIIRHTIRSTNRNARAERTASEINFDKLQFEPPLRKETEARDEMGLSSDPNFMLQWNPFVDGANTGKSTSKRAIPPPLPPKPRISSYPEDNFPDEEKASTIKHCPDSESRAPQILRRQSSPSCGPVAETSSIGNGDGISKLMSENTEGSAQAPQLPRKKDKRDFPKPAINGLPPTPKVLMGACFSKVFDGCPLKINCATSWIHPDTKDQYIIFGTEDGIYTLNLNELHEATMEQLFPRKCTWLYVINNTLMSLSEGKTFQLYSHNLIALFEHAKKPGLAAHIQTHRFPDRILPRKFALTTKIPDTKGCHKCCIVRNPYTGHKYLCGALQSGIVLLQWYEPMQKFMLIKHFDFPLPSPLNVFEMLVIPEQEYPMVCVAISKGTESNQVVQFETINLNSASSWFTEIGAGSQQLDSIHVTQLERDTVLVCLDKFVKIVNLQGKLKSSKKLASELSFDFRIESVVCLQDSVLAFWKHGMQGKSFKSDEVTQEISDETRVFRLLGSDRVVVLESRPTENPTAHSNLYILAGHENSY
Sequence of FGFR4 (human) (P22455 whole entry, looked up): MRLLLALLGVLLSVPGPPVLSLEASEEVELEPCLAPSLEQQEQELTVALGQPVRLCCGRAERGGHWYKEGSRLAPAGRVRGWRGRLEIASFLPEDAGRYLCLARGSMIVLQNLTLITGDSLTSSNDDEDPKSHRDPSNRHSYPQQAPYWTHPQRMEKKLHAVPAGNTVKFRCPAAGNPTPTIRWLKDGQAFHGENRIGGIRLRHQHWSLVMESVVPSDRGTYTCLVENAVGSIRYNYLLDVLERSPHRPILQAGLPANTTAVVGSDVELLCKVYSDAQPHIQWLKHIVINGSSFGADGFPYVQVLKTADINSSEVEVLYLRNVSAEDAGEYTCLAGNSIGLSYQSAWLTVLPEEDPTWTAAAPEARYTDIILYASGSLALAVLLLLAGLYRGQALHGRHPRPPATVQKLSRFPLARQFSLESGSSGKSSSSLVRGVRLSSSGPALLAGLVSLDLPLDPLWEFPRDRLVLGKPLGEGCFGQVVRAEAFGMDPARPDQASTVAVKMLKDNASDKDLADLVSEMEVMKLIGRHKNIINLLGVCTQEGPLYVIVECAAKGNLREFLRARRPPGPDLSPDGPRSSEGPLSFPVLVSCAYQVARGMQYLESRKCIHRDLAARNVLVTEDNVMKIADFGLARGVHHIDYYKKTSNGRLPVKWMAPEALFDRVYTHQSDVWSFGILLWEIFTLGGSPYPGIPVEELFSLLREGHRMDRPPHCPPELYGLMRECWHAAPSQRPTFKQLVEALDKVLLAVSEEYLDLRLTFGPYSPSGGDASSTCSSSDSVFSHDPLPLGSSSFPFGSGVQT
Sequence of STK24 (human) (Q9Y6E0 whole entry, looked up): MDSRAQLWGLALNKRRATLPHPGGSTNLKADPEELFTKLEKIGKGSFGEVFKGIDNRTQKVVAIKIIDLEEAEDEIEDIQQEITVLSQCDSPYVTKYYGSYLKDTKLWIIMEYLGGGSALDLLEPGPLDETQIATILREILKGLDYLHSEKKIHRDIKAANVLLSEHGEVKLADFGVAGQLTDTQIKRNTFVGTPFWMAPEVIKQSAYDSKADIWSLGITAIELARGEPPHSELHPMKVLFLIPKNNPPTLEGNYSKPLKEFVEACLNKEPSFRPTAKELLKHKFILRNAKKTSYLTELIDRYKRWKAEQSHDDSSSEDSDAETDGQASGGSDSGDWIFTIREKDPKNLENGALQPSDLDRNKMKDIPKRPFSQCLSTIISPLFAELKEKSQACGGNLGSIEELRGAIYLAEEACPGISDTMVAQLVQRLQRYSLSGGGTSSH
Sequence of ROCK1 (human) (Q13464 whole entry, looked up): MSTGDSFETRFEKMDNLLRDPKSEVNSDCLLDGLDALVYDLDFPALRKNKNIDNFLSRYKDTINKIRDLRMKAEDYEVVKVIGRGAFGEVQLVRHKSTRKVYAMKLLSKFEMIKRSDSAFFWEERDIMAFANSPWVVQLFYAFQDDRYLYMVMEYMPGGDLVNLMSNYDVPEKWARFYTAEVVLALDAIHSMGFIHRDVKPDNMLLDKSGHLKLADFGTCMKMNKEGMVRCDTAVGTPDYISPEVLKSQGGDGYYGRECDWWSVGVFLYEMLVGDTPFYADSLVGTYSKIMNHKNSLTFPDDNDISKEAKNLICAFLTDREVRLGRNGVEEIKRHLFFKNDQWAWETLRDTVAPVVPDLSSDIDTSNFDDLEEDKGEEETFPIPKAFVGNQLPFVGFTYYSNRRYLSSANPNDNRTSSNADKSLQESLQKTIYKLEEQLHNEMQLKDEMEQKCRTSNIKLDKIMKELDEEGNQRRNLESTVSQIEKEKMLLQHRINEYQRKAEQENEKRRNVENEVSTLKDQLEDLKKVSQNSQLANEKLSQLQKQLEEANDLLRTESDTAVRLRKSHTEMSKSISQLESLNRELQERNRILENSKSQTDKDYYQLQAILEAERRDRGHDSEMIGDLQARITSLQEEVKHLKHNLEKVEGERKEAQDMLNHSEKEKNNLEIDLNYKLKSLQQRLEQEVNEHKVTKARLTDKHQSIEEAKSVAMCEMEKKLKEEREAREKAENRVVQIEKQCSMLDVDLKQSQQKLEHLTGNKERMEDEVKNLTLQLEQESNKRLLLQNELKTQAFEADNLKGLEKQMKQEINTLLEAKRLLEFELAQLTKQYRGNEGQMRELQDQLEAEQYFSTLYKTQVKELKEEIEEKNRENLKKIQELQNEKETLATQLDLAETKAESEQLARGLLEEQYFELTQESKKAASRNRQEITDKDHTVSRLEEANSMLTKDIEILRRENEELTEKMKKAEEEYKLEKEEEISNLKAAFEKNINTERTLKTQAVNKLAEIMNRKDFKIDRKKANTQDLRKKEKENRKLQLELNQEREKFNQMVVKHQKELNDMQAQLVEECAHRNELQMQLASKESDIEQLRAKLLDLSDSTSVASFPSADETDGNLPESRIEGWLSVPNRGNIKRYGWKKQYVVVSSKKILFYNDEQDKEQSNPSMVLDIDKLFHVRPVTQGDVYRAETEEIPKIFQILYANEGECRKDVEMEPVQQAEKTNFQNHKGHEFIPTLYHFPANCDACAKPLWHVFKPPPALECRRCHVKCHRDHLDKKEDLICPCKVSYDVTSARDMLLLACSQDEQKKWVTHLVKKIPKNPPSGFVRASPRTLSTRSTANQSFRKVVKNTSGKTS
Sequence of SGK2 (human) (Q9HBY8 whole entry, looked up): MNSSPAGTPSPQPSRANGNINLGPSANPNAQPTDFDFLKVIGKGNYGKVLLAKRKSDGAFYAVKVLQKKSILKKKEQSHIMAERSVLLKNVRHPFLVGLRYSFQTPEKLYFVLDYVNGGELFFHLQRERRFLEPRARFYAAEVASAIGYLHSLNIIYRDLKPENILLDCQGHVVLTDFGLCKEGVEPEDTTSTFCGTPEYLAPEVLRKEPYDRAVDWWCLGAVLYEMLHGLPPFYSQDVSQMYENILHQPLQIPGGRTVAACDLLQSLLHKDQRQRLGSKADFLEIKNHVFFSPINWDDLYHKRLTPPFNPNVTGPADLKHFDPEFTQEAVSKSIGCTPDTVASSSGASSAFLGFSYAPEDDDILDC
Sequence of MAPK14 (human) (Q16539 whole entry, looked up): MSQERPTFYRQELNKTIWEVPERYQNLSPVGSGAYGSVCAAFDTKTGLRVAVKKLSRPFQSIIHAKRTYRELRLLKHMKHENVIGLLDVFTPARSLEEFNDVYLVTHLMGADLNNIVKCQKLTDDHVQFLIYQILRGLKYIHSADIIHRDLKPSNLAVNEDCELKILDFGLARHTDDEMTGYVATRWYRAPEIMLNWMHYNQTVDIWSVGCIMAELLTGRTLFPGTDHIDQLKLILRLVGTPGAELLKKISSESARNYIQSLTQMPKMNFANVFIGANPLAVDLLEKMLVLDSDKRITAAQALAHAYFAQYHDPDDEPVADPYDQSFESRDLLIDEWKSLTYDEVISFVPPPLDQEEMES
Sequence of AURKB (human) (Q96GD4 whole entry, looked up): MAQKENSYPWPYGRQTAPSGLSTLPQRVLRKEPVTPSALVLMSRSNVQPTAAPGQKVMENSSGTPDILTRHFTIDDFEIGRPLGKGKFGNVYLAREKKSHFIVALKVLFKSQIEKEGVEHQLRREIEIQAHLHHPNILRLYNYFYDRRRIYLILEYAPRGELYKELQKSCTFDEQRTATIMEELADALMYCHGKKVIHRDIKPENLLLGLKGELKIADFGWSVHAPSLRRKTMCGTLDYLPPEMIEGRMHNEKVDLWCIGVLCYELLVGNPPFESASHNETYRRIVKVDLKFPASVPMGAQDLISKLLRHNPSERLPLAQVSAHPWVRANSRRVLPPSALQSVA

## Nc1cc(C(F)(F)F)c(-c2cc(N3CCOCC3)nc(N3CCOCC3)n2)cn1
PRKCQ (human)
  inhibition: 5%
MAP2K2 (human)
  inhibition: 3%
FGFR3 (human)
  inhibition: 2%
STK24 (human)
  inhibition: 7%
PRKCI (human)
  inhibition: 9%
ALK (human)
  inhibition: 1%
GRK6 (human)
  inhibition: 4%
MAPK13 (human)
  inhibition: 2%
MAP4K5 (human)
  inhibition: 10%
MINK1 (human)
  inhibition: 4%
IRAK4 (human)
  inhibition: 12%
SRC (human)
  inhibition: 10%
[1]
  inhibition: 3%
ADRBK1 (human)
  inhibition: 1%
MAPKAPK2 (human)
  inhibition: -4%
DYRK3 (human)
  inhibition: 11%
ADRBK2 (human)
  inhibition: 2%
TAOK2 (human)
  inhibition: 6%
[2]
  inhibition: 1%
[3]
  inhibition: -4%
CSNK2A1 (human)
  inhibition: 1%
EPHA2 (human)
  inhibition: 8%
ROCK1 (human)
  inhibition: -2%
MAPK3 (human)
  inhibition: 7%
RET (human)
  inhibition: -4%
GRK7 (human)
  inhibition: 0%
CSNK1E (human)
  inhibition: 11%
INSR (human)
  inhibition: 6%
AURKB (human)
  inhibition: 11%
MAPK14 (human)
  inhibition: 4%
MYLK2 (human)
  inhibition: 8%
SYK (human)
  inhibition: 1%
CLK1 (human)
  inhibition: 32%
SGK2 (human)
  inhibition: 10%
ABL1 (human)
  inhibition: 3%
FGFR4 (human)
  inhibition: 5%
EPHA4 (human)
  inhibition: 9%
MERTK (human)
  inhibition: 3%
SRPK2 (human)
  inhibition: 7%
[4]
  inhibition: -4%

Reference: the kinase profiling compilation of Christmann-Franck et al. (2016)
